Key:
[1] = biological target: Acetylcholinesterase (Electrophorus electricus, UniProt O42275)
Description: In vitro inhibition of electric eel acetylcholinesterase

[2] = biological target: T1, Choline O-acetyltransferase (Rattus norvegicus) (UniProt P32738); assay: IC50 (hBuChE/hAChE) ratio of the compound
T1 sequence (whole entry): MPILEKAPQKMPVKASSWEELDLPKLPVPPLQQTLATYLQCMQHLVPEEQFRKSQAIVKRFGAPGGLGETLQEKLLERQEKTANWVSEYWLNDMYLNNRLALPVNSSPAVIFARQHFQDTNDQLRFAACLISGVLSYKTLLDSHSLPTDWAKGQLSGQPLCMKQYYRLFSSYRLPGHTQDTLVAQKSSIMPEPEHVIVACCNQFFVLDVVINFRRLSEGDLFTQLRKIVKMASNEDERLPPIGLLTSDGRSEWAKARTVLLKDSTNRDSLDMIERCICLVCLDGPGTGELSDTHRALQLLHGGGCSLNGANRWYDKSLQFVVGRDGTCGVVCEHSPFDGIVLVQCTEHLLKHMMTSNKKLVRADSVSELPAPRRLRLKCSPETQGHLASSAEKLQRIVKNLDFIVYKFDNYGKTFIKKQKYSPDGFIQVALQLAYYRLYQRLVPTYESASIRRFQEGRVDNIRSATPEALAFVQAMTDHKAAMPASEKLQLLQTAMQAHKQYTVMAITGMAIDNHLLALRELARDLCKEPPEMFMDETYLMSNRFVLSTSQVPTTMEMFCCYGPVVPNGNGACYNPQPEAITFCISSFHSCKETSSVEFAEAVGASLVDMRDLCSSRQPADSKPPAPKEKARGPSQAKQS

[3] = biological target: Cholinesterase (Homo sapiens, UniProt P06276)
Chain of Cholinesterase (P06276 whole entry): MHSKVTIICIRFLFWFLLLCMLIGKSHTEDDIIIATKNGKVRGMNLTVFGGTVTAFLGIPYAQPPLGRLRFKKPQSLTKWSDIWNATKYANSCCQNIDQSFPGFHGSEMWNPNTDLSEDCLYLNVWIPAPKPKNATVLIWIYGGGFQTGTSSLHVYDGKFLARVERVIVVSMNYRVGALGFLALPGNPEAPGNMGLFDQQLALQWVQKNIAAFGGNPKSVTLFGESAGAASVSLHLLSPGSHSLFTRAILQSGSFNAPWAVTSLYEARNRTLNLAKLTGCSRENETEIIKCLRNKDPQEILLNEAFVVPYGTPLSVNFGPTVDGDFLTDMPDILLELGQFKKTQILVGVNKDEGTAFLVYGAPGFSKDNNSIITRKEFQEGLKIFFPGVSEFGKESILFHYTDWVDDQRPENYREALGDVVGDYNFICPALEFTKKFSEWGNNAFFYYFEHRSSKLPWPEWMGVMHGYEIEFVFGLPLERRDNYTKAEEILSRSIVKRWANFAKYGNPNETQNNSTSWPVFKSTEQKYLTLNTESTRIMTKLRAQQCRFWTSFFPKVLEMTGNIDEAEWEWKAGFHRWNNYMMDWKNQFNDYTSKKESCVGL
Description: Inhibition of butyrylcholinesterase from human serum

[4] = biological target: Acetylcholinesterase (Homo sapiens, UniProt P22303)
Chain of Acetylcholinesterase (Homo sapiens, UniProt P22303) (P22303 whole entry): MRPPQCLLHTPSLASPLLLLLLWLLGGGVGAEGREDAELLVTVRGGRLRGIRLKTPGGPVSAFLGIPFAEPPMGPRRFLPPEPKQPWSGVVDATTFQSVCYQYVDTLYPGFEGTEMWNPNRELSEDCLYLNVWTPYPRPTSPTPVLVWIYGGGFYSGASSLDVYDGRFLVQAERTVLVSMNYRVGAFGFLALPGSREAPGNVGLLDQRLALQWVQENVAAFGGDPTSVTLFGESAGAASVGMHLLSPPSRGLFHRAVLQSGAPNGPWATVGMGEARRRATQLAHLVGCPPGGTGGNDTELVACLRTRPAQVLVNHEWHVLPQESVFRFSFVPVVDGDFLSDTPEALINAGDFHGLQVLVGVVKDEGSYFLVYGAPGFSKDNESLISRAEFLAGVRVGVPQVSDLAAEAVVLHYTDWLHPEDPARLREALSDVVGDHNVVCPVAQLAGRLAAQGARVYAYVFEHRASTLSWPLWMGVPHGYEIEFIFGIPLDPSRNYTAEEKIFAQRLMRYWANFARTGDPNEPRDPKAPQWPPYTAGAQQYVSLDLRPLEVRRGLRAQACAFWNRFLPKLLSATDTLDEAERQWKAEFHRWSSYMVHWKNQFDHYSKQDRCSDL
Description: In vitro inhibition of acetylcholinesterase from human erythrocytes

Chain of Acetylcholinesterase (Electrophorus electricus, UniProt O42275) (O42275 whole entry): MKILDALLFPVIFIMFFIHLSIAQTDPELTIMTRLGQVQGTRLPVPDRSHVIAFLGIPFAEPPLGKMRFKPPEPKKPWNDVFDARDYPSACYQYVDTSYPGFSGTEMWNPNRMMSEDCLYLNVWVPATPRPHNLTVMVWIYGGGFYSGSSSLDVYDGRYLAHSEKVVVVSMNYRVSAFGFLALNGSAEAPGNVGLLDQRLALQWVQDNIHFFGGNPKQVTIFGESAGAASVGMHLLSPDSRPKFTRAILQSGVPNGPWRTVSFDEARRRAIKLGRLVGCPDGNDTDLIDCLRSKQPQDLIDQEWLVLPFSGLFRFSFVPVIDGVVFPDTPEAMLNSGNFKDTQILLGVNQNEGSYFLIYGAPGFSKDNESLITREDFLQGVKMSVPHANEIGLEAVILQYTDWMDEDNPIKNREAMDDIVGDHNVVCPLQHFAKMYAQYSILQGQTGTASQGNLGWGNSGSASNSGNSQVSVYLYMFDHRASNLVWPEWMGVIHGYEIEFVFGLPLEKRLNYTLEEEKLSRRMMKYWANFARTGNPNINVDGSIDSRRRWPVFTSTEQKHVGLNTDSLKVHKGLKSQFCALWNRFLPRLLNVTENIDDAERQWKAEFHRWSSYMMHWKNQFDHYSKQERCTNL

Work on `c1ccc(CN2CCC(CCN=c3[nH]nc(-c4ccccc4)c4ccccc34)CC2)cc1` yielded an IC50 [1] of 440 nM.
`CC(=O)c1cccc(-c2ccc(NCCC3CCN(Cc4ccccc4)CC3)nn2)c1` gave an IC50 [1] of 54 nM.
`Clc1ccccc1-c1ccc(NCCC2CCN(Cc3ccccc3)CC2)nn1` was tested, and the IC50 [1] was 80 nM.
`c1ccc(CN2CCC(CCNc3cccnn3)CC2)cc1` showed an IC50 [1] of 240 nM.
`c1ccc(CN2CCC(CCNc3ccc(-c4ccccc4)nn3)CC2)cc1` gave an IC50 ratio [2] of 5 and an IC50 [1] of 120 nM.
`c1ccc(CN2CCC(CCNc3cc4c(nn3)-c3ccccc3CCC4)CC2)cc1` gave an IC50 [3] of 510 nM, an IC50 [4] of 120 nM and an IC50 [1] of 22 nM.
With `CC(C)c1cc(-c2ccccc2)nnc1NCCC1CCN(Cc2ccccc2)CC1` the IC50 [1] was 430 nM.
`CC(=O)Nc1cccc(-c2ccc(NCCC3CCN(Cc4ccccc4)CC3)nn2)c1` gave an IC50 [1] of 58 nM.
Work on `Cc1cc(-c2ccccc2)nnc1NCCC1CCN(Cc2ccccc2)CC1` yielded an IC50 [1] of 320 nM.
`CCc1ccccc1-c1ccc(NCCC2CCN(Cc3ccccc3)CC2)nn1` gave an IC50 [1] of 87 nM.
With `c1ccc(CN2CCC(CCSc3ccc(-c4ccccc4)nn3)CC2)cc1` the IC50 [3] was 480 nM, the IC50 [4] was 470 nM and the IC50 [1] was 63000 nM.
Compound `c1ccc(CN2CCC(CCNc3ccc(-c4cccnc4)nn3)CC2)cc1` has an IC50 [1] of 57 nM.
`FC(F)(F)c1cc(-c2ccc(NCCC3CCN(Cc4ccccc4)CC3)nn2)cc(C(F)(F)F)c1` showed an IC50 [1] of 56 nM.
In the case of `Fc1ccc(-c2ccc(NCCC3CCN(Cc4ccccc4)CC3)nn2)cc1`, the IC50 [1] is reported as 350 nM.
For `O=C(CNc1ccc(-c2ccccc2)nn1)N1CCN(Cc2ccccc2)CC1`, the IC50 [1] was 15000 nM.
`CCc1cc(=NCCC2CCN(Cc3ccccc3)CC2)[nH]nc1-c1ccccc1` was tested, and the IC50 [3] was 920 nM, the IC50 ratio [2] was 14 and the IC50 [4] was 66 nM. For the same compound, the IC50 [1] was 27 nM.
`c1ccc(CN2CCC(CCNc3cc4c(nn3)-c3ccccc3CC4)CC2)cc1` gave an IC50 [3] of 280 nM, an IC50 ratio [2] of 1.5 and an IC50 [4] of 190 nM. The IC50 [1] was 39 nM.
`c1ccc(CN2CCC(CCNc3ccc(-c4cccs4)nn3)CC2)cc1` gave an IC50 [1] of 97 nM.
For `c1ccc(CN2CCC(CCN=c3cc4c(n[nH]3)-c3ccccc3C4)CC2)cc1`, the IC50 [3] was 230 nM, the IC50 ratio [2] was 3.1 and the IC50 [4] was 74 nM. For the same compound, the IC50 [1] was 10 nM.
`N#Cc1ccc(-c2ccc(NCCC3CCN(Cc4ccccc4)CC3)nn2)cc1` gave an IC50 [1] of 100 nM.
With `c1ccc(CN2CCC(CCNc3ccc(-c4ccc5ccccc5c4)nn3)CC2)cc1` the IC50 [1] was 56 nM.
In the case of `COc1ccc(NCCC2CCN(Cc3ccccc3)CC2)nn1`, the IC50 [1] is reported as 220 nM.
In the case of `c1ccc(CC2CCN(CCNc3ccc(-c4ccccc4)nn3)CC2)cc1`, the IC50 [1] is reported as 24000 nM.
`c1ccc(CN2CCC(CCOc3ccc(-c4ccccc4)nn3)CC2)cc1` was tested, and the IC50 [3] was 1600 nM, the IC50 [4] was 710 nM and the IC50 [1] was 140000 nM.
`CN(C)c1ccc(-c2ccc(NCCC3CCN(Cc4ccccc4)CC3)nn2)cc1` gave an IC50 [1] of 210 nM.
`Cc1ccccc1-c1ccc(NCCC2CCN(Cc3ccccc3)CC2)nn1` showed an IC50 [1] of 90 nM.
`Cc1cc(C)c(-c2ccc(NCCC3CCN(Cc4ccccc4)CC3)nn2)c(C)c1` was tested, and the IC50 [1] was 3000 nM.
With `c1ccc(CN2CCC(CCNc3cc4ccc5ccccc5c4nn3)CC2)cc1` the IC50 [3] was 270 nM, the IC50 [4] was 190 nM and the IC50 [1] was 22 nM.
`Clc1ccc(NCCC2CCN(Cc3ccccc3)CC2)nn1` gave an IC50 [1] of 73 nM.
`CCCc1cc(=NCCC2CCN(Cc3ccccc3)CC2)[nH]nc1-c1ccccc1` was tested, and the IC50 [1] was 61 nM.
In the case of `O=C(CNc1ccc(-c2ccccc2)nn1)N1CCC(Cc2ccccc2)CC1`, the IC50 [1] is reported as 120000 nM.
`COc1ccccc1-c1ccc(NCCC2CCN(Cc3ccccc3)CC2)nn1` showed an IC50 [1] of 110 nM.
Work on `Cc1cc(=NCCC2CCN(Cc3ccccc3)CC2)[nH]nc1-c1ccccc1` yielded an IC50 [3] of 940 nM, an IC50 ratio [2] of 24 and an IC50 [4] of 39 nM. For the same compound, the IC50 [1] was 21 nM.
For `O=C(CN1CCC(Cc2ccccc2)CC1)Nc1ccc(-c2ccccc2)nn1`, the IC50 [1] was 18000 nM.
With `O=C(CN1CCN(Cc2ccccc2)CC1)Nc1ccc(-c2ccccc2)nn1` the IC50 [1] was 17000 nM.
`O=C(CC1CCN(Cc2ccccc2)CC1)Nc1ccc(-c2ccccc2)nn1` was tested, and the IC50 [1] was 4200 nM.
